Laboratory results published in PMC9154192 (PLoS Biology, 2022).
Converted amounts (≈) assume the structure as drawn. Read-outs that look alike come from different tables or passages of the source.

Columns and labels:
[1] = test system: clinically isolated MDR, XDR, and TDR M. tuberculosis strains; assay: microbe, parasite or virus in culture; format: cell-based; settings: Mycobacterium tuberculosis
[2] = test system: M. arupense; assay: microbe, parasite or virus in culture; format: cell-based, Mycobacterium arupense; settings: Mycolicibacter arupensis
[3] = test system: M. aubagnense; assay: microbe, parasite or virus in culture; format: cell-based, Mycobacterium aubagnense; settings: Mycolicibacterium aubagnense
[4] = test system: M. chitae; assay: microbe, parasite or virus in culture; format: cell-based, Mycobacterium chitae; settings: Mycolicibacterium chitae
[5] = test system: M. colombiense; assay: microbe, parasite or virus in culture; format: cell-based; settings: Mycobacterium colombiense
[6] = test system: M. conceptionense; assay: microbe, parasite or virus in culture; format: cell-based, Mycobacterium conceptionense; settings: Mycolicibacterium senegalense
[7] = test system: M. fortuitum; assay: microbe, parasite or virus in culture; format: cell-based, Mycobacterium fortuitum; settings: Mycolicibacterium fortuitum
[8] = test system: M. gilvum; assay: microbe, parasite or virus in culture; format: cell-based, Mycobacterium gilvum; settings: Mycolicibacterium gilvum
[9] = test system: M. gordonae; assay: microbe, parasite or virus in culture; format: cell-based; settings: Mycobacterium gordonae
[10] = test system: M. kansasii; assay: microbe, parasite or virus in culture; format: cell-based; settings: Mycobacterium kansasii
[11] = test system: M. kyorinense; assay: microbe, parasite or virus in culture; format: cell-based; settings: Mycobacterium kyorinense
[12] = test system: M. marinum; assay: microbe, parasite or virus in culture; format: cell-based; settings: Mycobacterium marinum
[13] = test system: M. marseiliense; assay: microbe, parasite or virus in culture; format: cell-based; settings: Mycobacterium
[14] = test system: M. peregrinum; assay: microbe, parasite or virus in culture; format: cell-based, Mycobacterium peregrinum; settings: Mycolicibacterium peregrinum
[15] = test system: Acinetobacter baumannii; assay: Broth dilution MIC (CLSI); format: cell-based
From the text: (§1) Bacteria (Acinetobacter baumannii NCCP 14782, Citrobacter freundii NCCP 14766, Enterobacter aerogenes NCCP 14761, Escherichia coli NCCP 14762, Escherichia coli O157 NCCP 14541, Klebsiella pneumoniae NCCP 14764, Proteus mirabilis NCCP 14763, Proteus vulgaris NCCP 14765, Pseudomonas aeruginosa NCCP 14781, Salmonella Enteritidis NCCP 14771, Salmonella Paratyphi A NCCP 14759, Salmonella Typhimurium NCCP 16207, Serratia marcescens NCCP 14770, Shigella boydii NCCP 14745, Shigella dysenteriae NCCP 14746, Shigella flexneri NCCP 14744, Shigella sonnei NCCP 14773, Bacillus subtilis NCCP 11101, Corynebacterium diphtheriae NCCP 10353, Staphylococcus aureus MSSA NCCP 14780, Staphylococcus aureus MRSA NCCP 14769, Staphylococcus epidermidis NCCP 14768, Streptococcus pneumoniae NCCP 14774) and fungi (Aspergillus fumigatus NCCP 22454, Candida albicans NCCP 32557, Cryptococcus neoformans NCCP 32559, Microsporum canis NCCP 22454, Rhizopus oryzae NCCP 22458, Saccharomyces cerevisiae NCCP 32558, Trichophyton rubrum NCCP 22456) strains were obtained from the National Culture Collection for Pathogens (NCCP) (Chungbuk, Korea). The MIC of each agent was determined following the Clinical and Laboratory Standards Institute (CLSI).[40]

[16] = test system: Aspergillus fumigatus; assay: Broth dilution MIC (CLSI); format: cell-based
From the text: as §1

[17] = test system: Bacillus subtilis; assay: Broth dilution MIC (CLSI); format: cell-based
From the text: as §1

[18] = test system: Candida albicans; assay: Broth dilution MIC (CLSI); format: cell-based
From the text: as §1

[19] = test system: Citrobacter freundii; assay: Broth dilution MIC (CLSI); format: cell-based
From the text: as §1

[20] = test system: Corynebacterium diphtheriae; assay: Broth dilution MIC (CLSI); format: cell-based
From the text: as §1

[21] = test system: Cryptococcus neoformans; assay: Broth dilution MIC (CLSI); format: cell-based
From the text: as §1

[22] = test system: Enterobacter aerogenes; assay: Broth dilution MIC (CLSI); format: cell-based; settings: Klebsiella aerogenes
From the text: as §1

[23] = test system: Escherichia coli O157; assay: Broth dilution MIC (CLSI); format: cell-based
From the text: as §1

[24] = test system: Escherichia coli; assay: Broth dilution MIC (CLSI); format: cell-based
From the text: as §1

[25] = test system: Klebsiella pneumoniae; assay: Broth dilution MIC (CLSI); format: cell-based
From the text: as §1

[26] = test system: Microsporum canis; assay: Broth dilution MIC (CLSI); format: cell-based
From the text: as §1

[27] = test system: Proteus mirabilis; assay: Broth dilution MIC (CLSI); format: cell-based
From the text: as §1

[28] = test system: Proteus vulgaris; assay: Broth dilution MIC (CLSI); format: cell-based
From the text: as §1

[29] = test system: Pseudomonas aeruginosa; assay: Broth dilution MIC (CLSI); format: cell-based
From the text: as §1

[30] = test system: Rhizopus oryzae; assay: Broth dilution MIC (CLSI); format: cell-based; settings: Rhizopus arrhizus
From the text: as §1

[31] = test system: Saccharomyces cerevisiae; assay: Broth dilution MIC (CLSI); format: cell-based
From the text: as §1

[32] = test system: Salmonella Enteritidis; assay: Broth dilution MIC (CLSI); format: cell-based; settings: Salmonella enterica
From the text: as §1

[33] = test system: Salmonella Paratyphi A; assay: Broth dilution MIC (CLSI); format: cell-based; settings: Salmonella enterica
From the text: as §1

[34] = test system: Salmonella Typhimurium; assay: Broth dilution MIC (CLSI); format: cell-based; settings: Salmonella enterica
From the text: as §1

[35] = test system: Serratia marcescens; assay: Broth dilution MIC (CLSI); format: cell-based
From the text: as §1

[36] = test system: Shigella boydii; assay: Broth dilution MIC (CLSI); format: cell-based
From the text: as §1

[37] = test system: Shigella dysenteriae; assay: Broth dilution MIC (CLSI); format: cell-based
From the text: as §1

[38] = test system: Shigella flexneri; assay: Broth dilution MIC (CLSI); format: cell-based
From the text: as §1

[39] = test system: Shigella sonnei; assay: Broth dilution MIC (CLSI); format: cell-based
From the text: as §1

[40] = test system: Staphylococcus aureus, MRSA; assay: Broth dilution MIC (CLSI); format: cell-based
From the text: as §1

[41] = test system: Staphylococcus aureus, MSSA; assay: Broth dilution MIC (CLSI); format: cell-based
From the text: as §1

[42] = test system: Staphylococcus epidermidis; assay: Broth dilution MIC (CLSI); format: cell-based
From the text: as §1

[43] = test system: Streptococcus pneumoniae; assay: Broth dilution MIC (CLSI); format: cell-based
From the text: as §1

COC(=O)[C@@H]1CCC(=O)N1Cc1cc2ccc(OCc3ccccc3)cc2c2cc(OC)c(OC)cc12 [PP3S, Methyl (S)-1-{[3-(Benzyloxy)-6,7-dimethoxy-9-phenanthryl]methyl}-5-oxopyrrolidine-2-carboxylate]
MIC ([1]; TDR-1): 0.8 µg/mL (≈ 1.6 µM)
MIC ([1]; TDR-2): 1.6 µg/mL (≈ 3.2 µM)
MIC ([1]; TDR-3): 0.8 µg/mL (≈ 1.6 µM)
MIC [2]: > 100 µg/mL
MIC [3]: > 100 µg/mL
MIC [4]: > 100 µg/mL
MIC [5]: > 100 µg/mL
MIC [6]: > 100 µg/mL
MIC [7]: > 100 µg/mL
MIC [8]: > 100 µg/mL
MIC [9]: > 100 µg/mL
MIC [10]: > 100 µg/mL
MIC [11]: > 100 µg/mL
MIC [12]: > 100 µg/mL
MIC [13]: > 100 µg/mL
MIC [14]: > 100 µg/mL
MIC ([15]; read-out: MIC): > 100 µg/mL
MIC ([16]; read-out: MIC): > 100 µg/mL
MIC ([17]; read-out: MIC): > 100 µg/mL
MIC ([18]; read-out: MIC): > 100 µg/mL
MIC ([19]; read-out: MIC): > 100 µg/mL
MIC ([20]; read-out: MIC): > 100 µg/mL
MIC ([21]; read-out: MIC): > 100 µg/mL
MIC ([22]; Enterobacter aerogenes, read-out: MIC): > 100 µg/mL
MIC ([23]; read-out: MIC): > 100 µg/mL
MIC ([24]; read-out: MIC): > 100 µg/mL
MIC ([25]; read-out: MIC): > 100 µg/mL
MIC ([26]; read-out: MIC): > 100 µg/mL
MIC ([27]; read-out: MIC): > 100 µg/mL
MIC ([28]; read-out: MIC): > 100 µg/mL
MIC ([29]; read-out: MIC): > 100 µg/mL
MIC ([30]; Rhizopus oryzae, read-out: MIC): > 100 µg/mL
MIC ([31]; read-out: MIC): > 100 µg/mL
MIC ([32]; Salmonella Enteritidis, read-out: MIC): > 100 µg/mL
MIC ([33]; Salmonella Paratyphi A, read-out: MIC): > 100 µg/mL
MIC ([34]; Salmonella Typhimurium, read-out: MIC): > 100 µg/mL
MIC ([35]; read-out: MIC): > 100 µg/mL
MIC ([36]; read-out: MIC): > 100 µg/mL
MIC ([37]; read-out: MIC): > 100 µg/mL
MIC ([38]; read-out: MIC): > 100 µg/mL
MIC ([39]; read-out: MIC): > 100 µg/mL
MIC ([40]; read-out: MIC): > 100 µg/mL
MIC ([41]; read-out: MIC): > 100 µg/mL
MIC ([42]; read-out: MIC): > 100 µg/mL
MIC ([43]; read-out: MIC): > 100 µg/mL

CO[C@H]1/C=C/O[C@@]2(C)Oc3c(C)c(O)c4c(O)c(c(/C=N/N5CCN(C)CC5)c(O)c4c3C2=O)NC(=O)/C(C)=C\C=C\[C@H](C)[C@H](O)[C@@H](C)[C@@H](O)[C@@H](C)[C@H](OC(C)=O)[C@@H]1C [RIF, rifampicin, reference compound]
MIC ([1]; TDR-1): > 100 µg/mL
MIC ([1]; TDR-2): > 100 µg/mL
MIC ([1]; TDR-3): > 100 µg/mL
MIC [2]: 0.1 µg/mL (≈ 0.122 µM)
MIC [3]: 1.6 µg/mL (≈ 1.94 µM)
MIC [4]: 6.3 µg/mL (≈ 7.66 µM)
MIC [5]: 0.2 µg/mL (≈ 0.243 µM)
MIC [6]: 25 µg/mL (≈ 30.4 µM)
MIC [7]: 0.2 µg/mL (≈ 0.243 µM)
MIC [8]: 0.2 µg/mL (≈ 0.243 µM)
MIC [9]: 3.1 µg/mL (≈ 3.77 µM)
MIC [10]: < 0.1 µg/mL
MIC [11]: 50 µg/mL (≈ 60.8 µM)
MIC [12]: < 0.1 µg/mL
MIC [13]: > 100 µg/mL
MIC [14]: 25 µg/mL (≈ 30.4 µM)
MIC [15]: 3.1 µg/mL (≈ 3.77 µM)
MIC [16]: > 100 µg/mL
MIC [17]: < 0.1 µg/mL
MIC [18]: > 100 µg/mL
MIC [19]: 25 µg/mL (≈ 30.4 µM)
MIC [20]: 0.05 µg/mL (≈ 0.0608 µM)
MIC [21]: > 100 µg/mL
MIC [22]: 6.3 µg/mL (≈ 7.66 µM)
MIC [23]: 3.1 µg/mL (≈ 3.77 µM)
MIC [24]: 6.3 µg/mL (≈ 7.66 µM)
MIC [25]: 6.3 µg/mL (≈ 7.66 µM)
MIC [26]: > 100 µg/mL
MIC [27]: 3.1 µg/mL (≈ 3.77 µM)
MIC [28]: 6.3 µg/mL (≈ 7.66 µM)
MIC [29]: 25 µg/mL (≈ 30.4 µM)
MIC [30]: > 100 µg/mL
MIC [31]: > 100 µg/mL
MIC ([32]; ENTERITIDIS): 12.5 µg/mL (≈ 15.2 µM)
MIC ([33]; PARATYPHI): 12.5 µg/mL (≈ 15.2 µM)
MIC ([34]; TYPHIMURIUM): 12.5 µg/mL (≈ 15.2 µM)
MIC [35]: 12.5 µg/mL (≈ 15.2 µM)
MIC [36]: 0.4 µg/mL (≈ 0.486 µM)
MIC [37]: 1.6 µg/mL (≈ 1.94 µM)
MIC [38]: 1.5 µg/mL (≈ 1.82 µM)
MIC [39]: 3.1 µg/mL (≈ 3.77 µM)
MIC [40]: 0.05 µg/mL (≈ 0.0608 µM)
MIC [41]: 0.05 µg/mL (≈ 0.0608 µM)
MIC [42]: 0.05 µg/mL (≈ 0.0608 µM)
MIC [43]: 0.05 µg/mL (≈ 0.0608 µM)
